Laboratory results taken from publication PMC9663578, “A fluorogenic probe for predicting treatment response in non-small cell lung cancer with EGFR-activating mutations” (Nature Communications, 2022).
Values joined by “and” are separate entries in the source; they are usually repeats but may differ in a detail not shown here. Equal values may be shown once.

How the values were obtained:
[1] = molecular target: BSA (Bos taurus, UniProt P02769); test: Fluorescence response of HX103 with BSA (control protein); assay type: binding; conditions: Fig. 2d, n=1-3
[2] = MTT cytotoxicity assay; assay type: cell-based; conditions: human, A549 cells, EGFR wild-type, n=3
Procedure: The cytotoxicity of the tested compounds against selected cell lines was measured by 3-(4,5-dimethylthiazol-2-yl)-2,5-diphenl tetrazolium bromide (MTT) assay. Briefly, cells (3000 per well) were plated in 96-well plate for 24 h and 100 µL of medium with di fferent concentrations of the tested compounds was added to each well for 48 h. Then 20 μL of MTT (5 mg/mL, Sigma-Aldrich) was added and incubate at 37 ℃ for 4 h, resulting the formation of the formazan crystal. The formed formazan crystal was dissolved with 150 μL of DMSO after removing the medium. The absorbance of each well was measured at 570 nm wavelength. The inhibition rate was calculated by the formula: (OD control group - OD treated group)/OD control group ×100%. The experiments were repeated at least three times. The IC50 values were determined by plotting a log (inhibitor) vs. normalized response (Variable slope) dose-response curve generated using GraphPad Prism […]
Immunohistochemistry staining
The obtained tumor tissues were sectioned into about 3 µm thickness layers. The general protocol of immunohistochemistry (IHC) was applied for the experiment. Firstly, the tissue slices were deparaffinized in xylene before immersion in 100% ethanol, followed by antigen repair. […]

[3] = Measurement of optical properties; assay type: physicochemical; conditions: for Fluorescence intensity, HX103 only: Fig. 2a
Procedure: page 66: […] Measurement of optical properties In the study, UV-vis spectra of the probes were determined on a Hitachi U-2910. The fluorescence spectroscopic experiments were performed on BioTek microplate reader and Horiba Jobin Yvon - Edison Fluoromax-4. Absolute fluorescence quantum efficiency was measured by an absolute quantum yield spectrometer (Horiba Jobin Yvon-Edison Fluoromax-4). The tested probe was dissolved in dimethyl sulfoxide (DMSO) to obtain stock solutions (10 mM). The prepared stock […] concentration solution, containing 0.1% (v/v) DMSO as a cosolvent. For the in vitro kinase […] The excitation and emission fluorescence spectra of the solution before/after addition o f different concentration […] Data analysis:The obtained fluorescence intensity at 570 nm (Excitation wavelength was 440 nm) in each sample was normalized by using the fluorescence intensity of HX103 in the presence of EGFR. Specifically, the fluorescence intensity of HX103 in the presence of EGFR wild-type […] 66

[4] = tested on: PC-9 cells; test: FACS assay in cultured cells; conditions: for HX103 dose-dependent signal (Supplementary Fig. 18): 20 µM = 100
Procedure: (§1) The FACS assay was performed according to the reported literatures[67],[68]. Briefly, the cultured cells were seeded on the petri dish and counted using Count star BioMed automated cell counter. Around 10^6 live-cells were collected and were pelleted (2000×g, 3 min), followed by washing with PBS (2x). Cells were then resuspended in PBS buffer containing 0.1% BSA (1 × 10^6 cells/mL). […] The cell suspension was resuspended in PBS and analyzed with a FACSVerse^TM flow cytometer (BD Biosciences, LSRFortessa). About 10,000 events per tube were analyzed and the mean fluorescence intensity was detected and analyzed.
(§2) For the FACS assay with EGFR antibody, around 10^6 live-cells were collected and washed with PBS (2x). The cells were fixed by 400 µL 4% paraformaldehyde for 15 min at room temperature, followed by permeabilization with 0.1% Triton X-100 for 10 min and blocking with 5% BSA for 30 min. […] The cells were then washed with 0.5% BSA/PBS (3x) and resuspended in 400 µL of 0.1% BSA/PBS. […] The resuspended cell suspension was then analyzed on a FACSVerseTM flow cytometer (BD Biosciences, LSRFortessa). Nonspecific fluorescence binding was omitted by Rabbit mAb IgG isotype control (#3900, CST, 1:100) and the corresponding mean fluorescence was subtracted from the signal measured with each primary antibody. About 10,000 events per tube were analyzed and the mean fluorescence intensity was detected and analyzed.
(§3) Subsequently, the treated cells were incubated for 30 min at 37 °C, followed by washing with PBS buffer three times. […] Finally, the co-stained cells were washed with 0.5% BSA/PBS for three times and resuspended in 400 µL of 0.1% BSA/PBS. The obtained cell suspension was ready for analysis. Nonspecific fluorescence binding was omitted by Rabbit mAb IgG isotype control (#3900, CST, 1:100) as described above.
(§4) Nonspecific fluorescence binding was omitted by Rabbit mAb IgG isotype control (#3900, CST, 1:100). […] After incubation for another 30 min at room temperature, the co-stained cells were washed with 0.5% BSA/PBS for three times and resuspended in 400 µL of 0.1% BSA/PBS. The obtained cell suspension was ready for analysis. Nonspecific fluorescence binding was omitted by Rabbit mAb IgG isotype control (#3900, CST, 1:100) as described above.
(§5) The cells were seeded on the petri dish and cultured at the normal condition with 10% FBS, and that was changed to serum-free condition for 24 h when the cells proliferated at ~80% confluence. […] Nonspecific fluorescence binding was omitted by Rabbit mAb IgG isotype control (#3900, CST, 1:100) as described above.

[5] = molecular target: T1, EGFR T790M (Homo sapiens, UniProt P00533, T790M); test: Fluorescence turn-on response / titration of HX103 with recombinant EGFR;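 on Fluorescence intensity at 570 nm: 100% is HX103 fluorescence with wild-type EGFR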; assay type: binding; conditions: for Fluorescence intensity, T790M: Fig. 2c; for Fluorescence response of HX103 to EGFR T790M: Supplementary Fig. 2f
T1 construct: EGFR T790M (amino acids 668–1210, #PR8052A); purchased Thermo Fisher PR8052A
Procedure: (d) Fluorescence spectra change of HX103 (5 µ M) with increasing concentration of EGFR L858R
(e) Fluorescence spectra change of HX103 (5 µ M ) with
increasing concentration of EGFR 19del (0 to 6 µM) in PBS buffer. (f) Titration curve of HX103
(5 µM) with increasing concentration of EGFRs (0 to 6 µM). The apparent binding affinity (Kd)
The fluorescence titration curve was fitted on one -
site specific binding model. I and I0 represent the intensities of HX103 at 570 nm in the presence
and absence of protein. Data represent average val ues ± SD, n = 3 independent experiments per
solution was diluted in sodium phosphate buffer (PBS, 1 M, pH=7.4) to obtain the desired final
Data analysis：The obtained fluorescence intensity at 570 nm (Excitation wavelength was 440
was set at 100% to normalized that of the remaining samples.

[6] = tested on: H1975 cells; test: Subcellular co-localization of HX103 (confocal); assay type: cell-based, human; conditions: HX103 5 µM, 0.5 h, ER/Mito/Lyso trackers
Procedure: Supplementary Figure 6. Application of HX103 in living cells. (a-c) Subcellular co-localization of HX103 with Lyso tracker (a), Mito tracker (b) or ER tracker (c). H1975 cells were treated with HX103 (5 µM, 0.5 h) and stained with Lyso tracker ([…], 30 min), Mito tracker (100 nM, 15 min) or ER tracker (500 nM, 15 min). After a PBS washing, the cells were used for confocal microscopy. Scale bar, 20 µm. Three biological independent experiments were repeated with similar results. (d) The mean fluorescence intensity analysis along white arrows in the overlay image in (a-c). Source data are provided as a Source Data file.
(1 picture or pasted object on this page, not shown here)

[7] = tested on: MCF-7 cells; test: FACS assay in cultured cells
Procedure: as §1, §2, §3, §4, §5

[8] = tested on: HCC827 cells; test: MTT cytotoxicity assay; assay type: cell-based; conditions: Homo sapiens, EGFR 19del, 48 h, n=3
[9] = HX103 5 µM, 30 min, replicates n=1-3

Chain of BSA (P02769 25-607): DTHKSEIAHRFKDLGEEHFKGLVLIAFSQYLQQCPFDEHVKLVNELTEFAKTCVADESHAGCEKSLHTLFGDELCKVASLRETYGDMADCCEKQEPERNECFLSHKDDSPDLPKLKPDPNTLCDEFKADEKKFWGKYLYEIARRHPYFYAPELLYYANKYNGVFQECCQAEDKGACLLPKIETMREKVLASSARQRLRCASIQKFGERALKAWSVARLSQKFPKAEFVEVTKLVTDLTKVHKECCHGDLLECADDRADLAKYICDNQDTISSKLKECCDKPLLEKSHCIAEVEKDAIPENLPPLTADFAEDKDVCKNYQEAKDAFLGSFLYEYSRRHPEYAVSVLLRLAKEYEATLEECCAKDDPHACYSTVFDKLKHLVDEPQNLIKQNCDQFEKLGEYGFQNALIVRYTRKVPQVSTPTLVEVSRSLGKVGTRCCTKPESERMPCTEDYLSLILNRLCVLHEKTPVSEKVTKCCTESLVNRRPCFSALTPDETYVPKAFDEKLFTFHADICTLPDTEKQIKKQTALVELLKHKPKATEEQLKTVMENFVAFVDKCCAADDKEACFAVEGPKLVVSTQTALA

COc1cc2c(Nc3ccc(F)c(Cl)c3)ncnc2cc1OCCCNc1ccc(S(=O)(=O)N(C)C)c2nonc12 [HX103]
Fluorescence intensity at 570 nm [1]: 39.1473 and 21.3173 and 35.8927
IC50 at 48 h [2]: 18 µM
Stokes shift [3]: 130 nm
excitation maximum [3]: 340/440
absolute quantum yield ([3]; DMSO): 42.4%
maximum UV absorption ([3]; DMSO): 342/438
Fluorescence intensity, HX103 only ([3]; wavelength 666 nm): 328.882
Fluorescence intensity, HX103 only ([3]; wavelength 669 nm): 313.191
Fluorescence intensity, HX103 only ([3]; wavelength 671 nm): 290.291
Fluorescence intensity, HX103 only ([3]; wavelength 673 nm): 261.813
Fluorescence intensity, HX103 only ([3]; wavelength 676 nm): 236.251
Fluorescence intensity, HX103 only ([3]; wavelength 678 nm): 222.471
Fluorescence intensity, HX103 only ([3]; wavelength 681 nm): 229.28
Fluorescence intensity, HX103 only ([3]; wavelength 683 nm): 261.184
Fluorescence intensity, HX103 only ([3]; wavelength 686 nm): 315.405
Fluorescence intensity, HX103 only ([3]; wavelength 688 nm): 388.462
Fluorescence intensity, HX103 only ([3]; wavelength 690 nm): 476.875
Fluorescence intensity, HX103 only ([3]; wavelength 693 nm): 577.288
Fluorescence intensity, HX103 only ([3]; wavelength 695 nm): 686.662
Fluorescence intensity, HX103 only ([3]; wavelength 698 nm): 802.01
Fluorescence intensity, HX103 only ([3]; wavelength 700 nm): 920.343
Fluorescence intensity at 570 nm ([3]; Fig. 2b, HX103 alone, n=1-3): 8.2448 and 8.538 and 6.65
absolute quantum yield ([3]; PBS): 5.8%
fluorescence emission wavelength ([3]; excitation at 440 nm): 570 nm
normalized MFI of HX103 labeling [4, 9]: 81.9742% and 91.6309% and 86.8026%
EGFR(+) HX103 (+) (%) ([4]; HX103 5 µM, replicates n=1-3): 64.51% and 67.13% and 48.39%
EGFR(+) HX103 (+) (%) AVE ([4]; PC-9, AVE of n=3): 60.01%
HX103 (+) (%) AVE ([4]; PC-9, AVE of n=3): 59.6433%
HX103 dose-dependent signal (Supplementary Fig. 18) ([4]; PC-9, HX103 0.37 µM): 18.3072 and 15.0075 and 16.6544
HX103 dose-dependent signal (Supplementary Fig. 18) ([4]; PC-9, HX103 3.3 µM): 59.5109 and 51.9447 and 55.7208
HX103 dose-dependent signal (Supplementary Fig. 18) ([4]; PC-9, HX103 10 µM): 68.1021 and 78.5978 and 73.3469
HX103 dose-dependent signal (Supplementary Fig. 18) ([4]; PC-9, HX103 15 µM): 80.0389 and 87.1198 and 83.5744
HX103 dose-dependent signal (Supplementary Fig. 18) ([4]; PC-9, HX103 20 µM): 100
HX103 signal (Supplementary Fig. 7) ([4]; PC-9, HX103 alone or with Gefitinib, replicates n=1-3): 103.242 and 99.7186 and 97.0394
EGFR(+) HX103 (+) (%) ([4]; PC-9, replicates n=1-3): 48.39% and 64.51% and 67.13%
HX103(+) (%) ([4]; PC-9, replicates n=1-3): 59.69% and 66.68% and 52.56%
Fluorescence intensity, T790M ([5]; wavelength 666 nm): 2748.26
Fluorescence intensity, T790M ([5]; wavelength 669 nm): 2609.98
Fluorescence intensity, T790M ([5]; wavelength 671 nm): 2444.87
Fluorescence intensity, T790M ([5]; wavelength 673 nm): 2257.89
Fluorescence intensity, T790M ([5]; wavelength 676 nm): 2067.13
Fluorescence intensity, T790M ([5]; wavelength 678 nm): 1891.35
Fluorescence intensity, T790M ([5]; wavelength 681 nm): 1749.2
Fluorescence intensity, T790M ([5]; wavelength 683 nm): 1648.24
Fluorescence intensity, T790M ([5]; wavelength 686 nm): 1577.34
Fluorescence intensity, T790M ([5]; wavelength 688 nm): 1523.55
Fluorescence intensity, T790M ([5]; wavelength 690 nm): 1473.92
Fluorescence intensity, T790M ([5]; wavelength 693 nm): 1419.2
Fluorescence intensity, T790M ([5]; wavelength 695 nm): 1359.54
Fluorescence intensity, T790M ([5]; wavelength 698 nm): 1296.59
Fluorescence intensity, T790M ([5]; wavelength 700 nm): 1231.99
Fluorescence intensity at 570 nm ([5]; Fig. 2d, HX103 with EGFR T790M, n=1-3): 62.6243 and 56.177 and 61.7341
fluorescence turn-on response ([5]; HX103 5 µM in PBS buffer (0.1% DMSO), 570 nm): relatively low fluorescence
Kd ([5]; HX103 5 µM, EGFR 0 to 6 µM in PBS, one-site specific binding model, read-out: apparent binding affinity (Kd)): 6.6 ± 4.6 µM
Fluorescence response of HX103 to EGFR T790M ([5]; EGFR 0.1 µM, n=1-3): 0.8143 and 0.8764 and 0.5043
Fluorescence response of HX103 to EGFR T790M ([5]; EGFR 0.5 µM, n=1-3): 1.381 and 1.689 and 1.392
Fluorescence response of HX103 to EGFR T790M ([5]; EGFR 1 µM, n=1-3): 1.713 and 2.039 and 1.744
Fluorescence response of HX103 to EGFR T790M ([5]; EGFR 6 µM, n=1-3): 6.037 and 7.198 and 5.58
subcellular distribution of HX103-labeled EGFR [6]: internalized and translocated in the endoplasmic reticulum
normalized MFI of HX103 labeling [7, 9]: 25.1073% and 53.6481% and 30.8069%
EGFR(+) HX103 (+) (%) ([7]; HX103 5 µM, replicates n=1-3): 0.04% and 0.02% and 0.09%
EGFR(+) HX103 (+) (%) AVE ([7]; MCF-7, AVE of n=3): 0.05%
HX103 (+) (%) AVE ([7]; MCF-7, AVE of n=3): 0.5297%
EGFR(+) HX103 (+) (%) ([7]; MCF-7, replicates n=1-3): 0.09% and 0.04% and 0.02%
HX103(+) (%) ([7]; MCF-7, replicates n=1-3): -0.051% and 1.21% and 0.43%
IC50 [8]: 9.3 µM
